From patent US20250368627A1, “PYRAZOLESULFONAMIDES AS ANTITUMOR AGENTS” (Peloton Therapeutics, Inc., a fully owned subsidiary of …, priority 2019, published 2025)

Columns and labels:
[1] = target: T1, DDB1DB/DCAF15 and RBM39 R1R2 complex (Homo sapiens, UniProt Q14498+Q66K64); experiment: DCAF15 RBM39 Complex Formation Assay (FRET); assay type: binding; conditions: FRET ratio Em 665/Em 615, incubated overnight at 4° C.
T1 construct: Amino acids 150 to 331 of RBM39 were cloned into pGEX4T3; GST (from vector pGEX4T3); TEV cleavage site (N); made in house; host or cells: DDB1DB/His-DCAF15: baculovirus/Sf9 co-expression; RBM39 R1R2: E. coli (pGEX4T3)
T1 sequence (Q66K64 whole entry, the tested form may be a part): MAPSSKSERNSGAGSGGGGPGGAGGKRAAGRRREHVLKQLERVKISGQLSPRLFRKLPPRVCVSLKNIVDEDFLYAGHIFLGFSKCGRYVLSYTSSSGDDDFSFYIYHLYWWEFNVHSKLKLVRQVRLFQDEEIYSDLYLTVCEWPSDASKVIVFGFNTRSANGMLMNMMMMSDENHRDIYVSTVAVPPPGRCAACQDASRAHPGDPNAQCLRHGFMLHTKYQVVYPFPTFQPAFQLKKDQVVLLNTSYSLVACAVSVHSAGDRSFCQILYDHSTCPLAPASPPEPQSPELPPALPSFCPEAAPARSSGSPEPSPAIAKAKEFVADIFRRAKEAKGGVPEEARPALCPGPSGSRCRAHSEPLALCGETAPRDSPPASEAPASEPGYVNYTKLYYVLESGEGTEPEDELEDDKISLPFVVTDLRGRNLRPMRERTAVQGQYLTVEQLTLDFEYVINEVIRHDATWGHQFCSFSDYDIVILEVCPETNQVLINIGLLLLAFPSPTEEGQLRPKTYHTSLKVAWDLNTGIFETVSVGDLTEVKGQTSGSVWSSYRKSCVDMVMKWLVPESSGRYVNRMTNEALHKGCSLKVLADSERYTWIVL
T1 sequence (Q14498 150-331): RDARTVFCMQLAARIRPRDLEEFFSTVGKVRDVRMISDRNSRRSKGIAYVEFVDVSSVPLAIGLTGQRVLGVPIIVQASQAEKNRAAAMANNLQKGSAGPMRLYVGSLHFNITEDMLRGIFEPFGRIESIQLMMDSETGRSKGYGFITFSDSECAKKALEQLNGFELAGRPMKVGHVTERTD
T1 sequence (Q16531 with tags, fused parts or gaps DEL396-708 partner): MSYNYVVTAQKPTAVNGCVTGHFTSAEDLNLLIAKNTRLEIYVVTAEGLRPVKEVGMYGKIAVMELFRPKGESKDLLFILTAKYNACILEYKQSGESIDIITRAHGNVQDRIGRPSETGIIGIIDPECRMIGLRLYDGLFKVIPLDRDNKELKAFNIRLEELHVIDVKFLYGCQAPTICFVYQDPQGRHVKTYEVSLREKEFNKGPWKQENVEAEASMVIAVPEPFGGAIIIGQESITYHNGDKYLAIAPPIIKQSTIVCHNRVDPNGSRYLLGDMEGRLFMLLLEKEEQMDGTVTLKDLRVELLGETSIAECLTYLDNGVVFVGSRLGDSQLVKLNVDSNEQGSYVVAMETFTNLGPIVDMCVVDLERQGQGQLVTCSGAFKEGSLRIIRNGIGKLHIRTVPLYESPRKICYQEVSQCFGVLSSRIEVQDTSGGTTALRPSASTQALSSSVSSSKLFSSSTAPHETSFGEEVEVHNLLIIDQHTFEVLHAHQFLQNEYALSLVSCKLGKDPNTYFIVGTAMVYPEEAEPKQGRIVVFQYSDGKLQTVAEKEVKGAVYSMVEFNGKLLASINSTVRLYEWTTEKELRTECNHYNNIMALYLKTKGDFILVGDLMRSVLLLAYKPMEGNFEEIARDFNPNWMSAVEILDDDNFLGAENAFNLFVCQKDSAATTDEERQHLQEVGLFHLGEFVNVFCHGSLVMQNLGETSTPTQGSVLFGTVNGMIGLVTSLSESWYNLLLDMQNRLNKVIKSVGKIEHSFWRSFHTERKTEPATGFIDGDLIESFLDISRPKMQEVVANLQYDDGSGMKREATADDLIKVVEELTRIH
From the text: LANCE Eu-W1024 Anti-6×His and SureLight Allophycocyanin-anti-FLAG antibodies were purchased from Perkin Elmer. Human DDB1DB and His-tagged DCAF15 were co-expressed in baculovirus/sf9 system. While full length DDB1 contains three 7-bladed propellers termed A, B, and C, DDB1DB has only propeller A (amino acids 1 to 395) and C (amino acids 709-1140). The His-tagged DCAF15 contains six histidine residues directly preceding the DCAF15 sequence without any linker. An RBM39 fragment containing RRM1 and RRM2 was expressed in E. coli. Amino acids 150 to 331 of RBM39 were cloned into pGEX4T3 with an N-terminal TEV cleavage site and a C-terminal FLAG tag.
A compound of the present disclosure in DMSO (2 μL) was transferred to a 384-well assay plate. Compound was added in 14 points, 3-fold serial dilution (1 μM to 0.6 pico molar) in DMSO. […] FRET assay buffer (25 mM HEPES, pH 7.5, 100 mM NaCl, […], 0.5 mM TCEP, 0.005% Tween-20, 0.2 nM Eu—W1024 Anti-6×His, 50 nM SureLight Allophycocyanin-anti-FLAG, 20 nM DDB1DB/DCAF15, 50 nM RBM39 R1R2) was added and the resulting solution was incubated overnight at 4° C. The plate was placed in a plate reader (Spark 10) with excitation at 1=340 nm and emissions monitored at 1=665 nm and 1=615 nm, and the FRET ratio (Em 665/Em 615) was determined. Low signal controls containing no compound and high signal controls containing 10 mM indisulam were measured for each plate.
EC50 values were calculated using Dotmatics template equation for 4-parameter fit. Results are expressed as % formation using the following equation: […]

[2] = system: HCT116 human colorectal carcinoma cells; experiment: CellTiter-Glo Luminescent Cell Viability Assay; assay type: cell-based; conditions: HCT-116, 72 h, 3 days
Method: HCT116 human colorectal carcinoma cells were used in these experiments. HCT116 cells were obtained from ATCC. CellTiter-Glo® Luminescent Cell Viability Assay Reagent was obtained from Promega.
About 3,000 cells were seeded into 96-well plate with […] of media (DMEM supplemented with 10% FBS, 100 units penicillin, and […] streptomycin per mL) the day before the experiment. For compound treatment, the master plate was prepared as follows: 100× compound stocks were prepared in a 96-well plate by 1 to 3 serial dilutions of 0.5 mM DMSO stocks. Each master plate contained serial dilution of 8 compounds, including the control compound E7820. […] of 100× compound stock was added to each well of the assay plate to give final concentrations of […]. Each concentration was tested in triplicate. After 3 days, cell viability was determined using CellTiter-Glo Luminescent Cell Viability Assay Reagent following the manufacturer's recommended protocol. Briefly, […] of CellTiter-Glo reagent was added to each well of the assay plate and the contents were mixed for 3 minutes at 600 rpm on a shaker (Thermomixer R). The plate was immediately placed in a plate reader (Synergy 2) and the luminescence signal (0.5 second per well integration time) was determined. IC50 values were calculated using Dotmatics software.

Cc1ccc(NS(=O)(=O)c2cnn(C)c2N)c2[nH]cc(C#N)c12 [Compound 161, 5-amino-N-(3-cyano-4-methyl-1H-indol-7-yl)-1-methyl-pyrazole-4-sulfonamide]
IC50 [1]: < 250 nM
EC50 [2]: < 250 nM

Cc1ccc(NS(=O)(=O)c2cnn(CC(=O)N3C[C@@H](F)[C@@H](F)C3)c2)c2[nH]cc(C#N)c12 [Compound 138, N-(3-cyano-4-methyl-1H-indol-7-yl)-1-[2-[(3R,4S)-3,4-difluoropyrrolidin-1-yl]-2-oxo-ethyl]pyrazole-4-sulfonamide]
IC50 [1]: < 250 nM
EC50 [2]: > 1000 nM

Cc1ccc(NS(=O)(=O)c2cnn(C(C)CC(C)(C)O)c2)c2[nH]cc(C#N)c12 (centres unmarked) [Compound 242, N-(3-cyano-4-methyl-1H-indol-7-yl)-1-(3-hydroxy-1,3-dimethyl-butyl)pyrazole-4-sulfonamide]
IC50 [1]: < 250 nM
EC50 [2]: < 250 nM

Cn1ncc(S(=O)(=O)Nc2ccc(F)c3c(C#N)c[nH]c23)c1N [Compound 282, 5-amino-N-(3-cyano-4-fluoro-1H-indol-7-yl)-1-methyl-pyrazole-4-sulfonamide]
IC50 [1]: < 250 nM
EC50 [2]: 250 to 1000 nM

N#Cc1c[nH]c2c(NS(=O)(=O)c3cnn([C@H]4C[C@H](O)C4)c3)ccc(Cl)c12 [Compound 175, N-(4-chloro-3-cyano-1H-indol-7-yl)-1-(3-hydroxycyclobutyl)pyrazole-4-sulfonamide]
IC50 [1]: < 250 nM
EC50 [2]: 250 to 1000 nM

N#CCCn1cc(S(=O)(=O)Nc2cccc3c(Cl)c[nH]c23)cn1 [Compound 59, N-(3-chloro-1H-indol-7-yl)-1-(2-cyanoethyl)pyrazole-4-sulfonamide]
IC50 [1]: < 250 nM
EC50 [2]: < 250 nM

O=S(=O)(Nc1cccc2c(Cl)c[nH]c12)c1cn[nH]c1 [Compound 10, N-(3-chloro-1H-indol-7-yl)-1H-pyrazole-4-sulfonamide]
IC50 [1]: < 250 nM

COC1CC(n2cc(S(=O)(=O)Nc3cccc4c(Cl)c[nH]c34)cn2)C1 (centres unmarked) [Compound 190, N-(3-chloro-1H-indol-7-yl)-1-(3-methoxycyclobutyl)pyrazole-4-sulfonamide]
IC50 [1]: < 250 nM
EC50 [2]: 250 to 1000 nM

Cc1ccc(NS(=O)(=O)c2cnn(Cc3ccccc3)c2)c2[nH]cc(C#N)c12 [Compound 89, 1-benzyl-N-(3-cyano-4-methyl-1H-indol-7-yl)pyrazole-4-sulfonamide]
IC50 [1]: < 250 nM
EC50 [2]: 250 to 1000 nM

O=S(=O)(Nc1cccc2c(Cl)c[nH]c12)c1cnn(CC2CNC2)c1 [Compound 43, 1-(azetidin-3-ylmethyl)-N-(3-chloro-1H-indol-7-yl)pyrazole-4-sulfonamide]
IC50 [1]: < 250 nM
EC50 [2]: > 1000 nM

O=S(=O)(Nc1ccc(Cl)c2c(Cl)c[nH]c12)c1cnn(C(CO)CO)c1 [Compound 176, N-(3,4-dichloro-1H-indol-7-yl)-1-[2-hydroxy-1-(hydroxymethyl)ethyl]pyrazole-4-sulfonamide]
IC50 [1]: < 250 nM
EC50 [2]: 250 to 1000 nM

Cc1ccc(NS(=O)(=O)c2cnn(C3COC3)c2)c2[nH]cc(C#N)c12 [Compound 64, N-(3-cyano-4-methyl-1H-indol-7-yl)-1-(oxetan-3-yl)pyrazole-4-sulfonamide]
IC50 [1]: < 250 nM
EC50 [2]: < 250 nM

CC(F)(CO)n1cc(S(=O)(=O)Nc2ccc(F)c3c(C#N)c[nH]c23)cn1 (centres unmarked) [Compound 294, N-(3-cyano-4-fluoro-1H-indol-7-yl)-1-(1-fluoro-2-hydroxy-1-methyl-ethyl)pyrazole-4-sulfonamide]
IC50 [1]: < 250 nM
EC50 [2]: > 1000 nM

Cc1ccc(NS(=O)(=O)c2cnn(CC(=O)O)c2)c2[nH]cc(C#N)c12 [Compound 134, 2-[4-[(3-cyano-4-methyl-1H-indol-7-yl)sulfamoyl]pyrazol-1-yl]acetic acid]
IC50 [1]: < 250 nM
EC50 [2]: > 1000 nM

N#Cc1c[nH]c2c(NS(=O)(=O)c3cnn(CC4CC4)c3)ccc(Cl)c12 [Compound 123, N-(4-chloro-3-cyano-1H-indol-7-yl)-1-(cyclopropylmethyl)pyrazole-4-sulfonamide]
IC50 [1]: < 250 nM
EC50 [2]: 250 to 1000 nM

Cc1nn(C)c(C)c1S(=O)(=O)Nc1cccc2c(Cl)c[nH]c12 [Compound 2, N-(3-chloro-1H-indol-7-yl)-1,3,5-trimethyl-pyrazole-4-sulfonamide]
IC50 [1]: > 1000 nM

Cn1cc(S(=O)(=O)Nc2ccc(F)c3cc[nH]c23)cn1 [Compound 55, N-(4-fluoro-1H-indol-7-yl)-1-methyl-pyrazole-4-sulfonamide]
IC50 [1]: > 1000 nM

CC(C)(CO)n1ncc(S(=O)(=O)Nc2ccc(Cl)c3c(C#N)c[nH]c23)c1N [Compound 316, 5-amino-N-(4-chloro-3-cyano-1H-indol-7-yl)-1-(2-hydroxy-1,1-dimethyl-ethyl)pyrazole-4-sulfonamide]
IC50 [1]: < 250 nM

Cc1ccc(NS(=O)(=O)c2cnn([C@H](CO)CF)c2)c2[nH]cc(C#N)c12 [Compound 313, N-(3-cyano-4-methyl-1H-indol-7-yl)-1-[(1R)-1-(fluoromethyl)-2-hydroxy-ethyl]pyrazole-4-sulfonamide]
IC50 [1]: < 250 nM

O=S(=O)(c1cnn(CC2CC2)c1)N(CC1CC1)c1cccc2c(Cl)c[nH]c12 [Compound 48, N-(3-chloro-1H-indol-7-yl)-N,1-bis(cyclopropylmethyl)pyrazole-4-sulfonamide]
IC50 [1]: > 1000 nM

CCn1cc(S(=O)(=O)Nc2cccc3c(Cl)c[nH]c23)cn1 [Compound 4, N-(3-chloro-1H-indol-7-yl)-1-ethyl-pyrazole-4-sulfonamide]
IC50 [1]: < 250 nM

O=S(=O)(Nc1cccc2c(Cl)c[nH]c12)c1cnn(C2CCOC2)c1 (centres unmarked) [Compound 8, N-(3-chloro-1H-indol-7-yl)-1-tetrahydrofuran-3-yl-pyrazole-4-sulfonamide]
IC50 [1]: < 250 nM

Cc1ccc(NS(=O)(=O)c2cnn(C(C)(C)CO)c2N)c2[nH]cc(C#N)c12 [Compound 315, 5-amino-N-(3-cyano-4-methyl-1H-indol-7-yl)-1-(2-hydroxy-1,1-dimethyl-ethyl)pyrazole-4-sulfonamide]
IC50 [1]: < 250 nM

N#Cc1n[nH]c2c(NS(=O)(=O)c3cnn([C@H](CO)CF)c3)ccc(Cl)c12 [Compound 310, N-(4-chloro-3-cyano-1H-indazol-7-yl)-1-[(1R)-1-(fluoromethyl)-2-hydroxy-ethyl]pyrazole-4-sulfonamide]
IC50 [1]: < 250 nM

COCCN(c1cccc2c(Cl)c[nH]c12)S(=O)(=O)c1cnn(CCOC)c1 [Compound 50, N-(3-chloro-1H-indol-7-yl)-N,1-bis(2-methoxyethyl)pyrazole-4-sulfonamide]
IC50 [1]: > 1000 nM

Cc1ccc(NS(=O)(=O)c2cnn([C@H](CO)CF)c2)c2[nH]nc(C#N)c12 [Compound 314, N-(3-cyano-4-methyl-1H-indazol-7-yl)-1-[(1R)-1-(fluoromethyl)-2-hydroxy-ethyl]pyrazole-4-sulfonamide]
IC50 [1]: < 250 nM

O=S1(=O)CC(n2cc(S(=O)(=O)Nc3cccc4c(Cl)c[nH]c34)cn2)C1 [Compound 58, N-(3-chloro-1H-indol-7-yl)-1-(1,1-dioxothietan-3-yl)pyrazole-4-sulfonamide]
IC50 [1]: > 1000 nM

Cc1nn(C)cc1S(=O)(=O)Nc1cccc2c(Cl)c[nH]c12 [Compound 5, N-(3-chloro-1H-indol-7-yl)-1,3-dimethyl-pyrazole-4-sulfonamide]
IC50 [1]: 250 to 1000 nM

Cn1ncc(S(=O)(=O)Nc2ccc(Cl)c3c(C#N)c[nH]c23)c1C#N [Compound 132, N-(4-chloro-3-cyano-1H-indol-7-yl)-5-cyano-1-methyl-pyrazole-4-sulfonamide]
IC50 [1]: 250 to 1000 nM

Cc1ccc(NS(=O)(=O)c2cnn(C)c2C#N)c2[nH]cc(C#N)c12 [Compound 131, 5-cyano-N-(3-cyano-4-methyl-1H-indol-7-yl)-1-methyl-pyrazole-4-sulfonamide]
IC50 [1]: 250 to 1000 nM
